Source: PubChem BioAssay AID330 (DTP/NCI, 2004)
Where “and” joins values, the source holds several entries; their conditions need not be identical. Identical values can stand only once. Inconclusive results and toxic doses are left out. The calls were made as follows: active = survival T/C of 150% or more; inactive = T/C below 125% in these data.

Test system: P388 leukemia ip, CD2F1 mice, survival T/C
Assay: NCI In Vivo Anticancer Drug Screen. Data for tumor model P388 Leukemia (intraperitoneal) in CD2F1 (CDF1) mice
Details: endpoint: median survival time, higher = longer survival
Outline: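 Mice carrying the transplanted tumor received test compound or vehicle. Survival was recorded in each group, and the value is the treated-group measurement divided by that of the vehicle-treated control group.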

[1] = dose: 60.0 mg/kg/injection, schedule: Q01DX005 (ip), vehicle: saline
[2] = dose: 120.0 mg/kg/injection, schedule: Q01DX005 (ip), vehicle: saline
[3] = dose: 240.0 mg/kg/injection, schedule: Q01DX005 (ip), vehicle: saline
[4] = dose: 50.0 mg/kg/injection, schedule: Q01DX005 (ip), vehicle: Klucel (hydroxypropylcellulose) (HPC)
[5] = dose: 100.0 mg/kg/injection, schedule: Q01DX005 (ip), vehicle: Klucel (hydroxypropylcellulose) (HPC)
[6] = dose: 200.0 mg/kg/injection, schedule: Q01DX005 (ip), vehicle: Klucel (hydroxypropylcellulose) (HPC)
[7] = dose: 12.5 mg/kg/injection, schedule: Q01DX009 (ip), vehicle: saline with Tween-80
[8] = dose: 25.0 mg/kg/injection, schedule: Q01DX009 (ip), vehicle: saline with Tween-80
[9] = dose: 50.0 mg/kg/injection, schedule: Q01DX009 (ip), vehicle: saline with Tween-80
[10] = dose: 50.0 mg/kg/injection, schedule: Q01DX009 (ip), vehicle: saline
[11] = dose: 100.0 mg/kg/injection, schedule: Q01DX009 (ip), vehicle: saline
[12] = dose: 200.0 mg/kg/injection, schedule: Q01DX009 (ip), vehicle: saline
[13] = dose: 50.0 mg/kg/injection, schedule: Q01DX005 (ip), vehicle: saline with Tween-80
[14] = dose: 100.0 mg/kg/injection, schedule: Q01DX005 (ip), vehicle: saline with Tween-80
[15] = dose: 200.0 mg/kg/injection, schedule: Q01DX005 (ip), vehicle: saline with Tween-80
[16] = dose: 60.0 mg/kg/injection, schedule: Q01DX005 (ip), vehicle: saline with Tween-80
[17] = dose: 120.0 mg/kg/injection, schedule: Q01DX005 (ip), vehicle: saline with Tween-80
[18] = dose: 3.13 mg/kg/injection, schedule: Q01DX009 (ip), vehicle: saline with Tween-80
[19] = dose: 6.25 mg/kg/injection, schedule: Q01DX009 (ip), vehicle: saline with Tween-80
[20] = dose: 240.0 mg/kg/injection, schedule: Q01DX005 (ip), vehicle: saline with Tween-80
[21] = dose: 25.0 mg/kg/injection, schedule: Q01DX009 (ip), vehicle: Klucel (hydroxypropylcellulose) (HPC)

Measured: T/C

CC1=C(C)C[C@](C)(S(=O)(=O)N2CCOCC2)S(=O)C1 (stereo not given in full)
inactive: [1] 105 % of control | [2] 98 % of control | [3] 111 % of control

C=CCC12C[C@H](OC)[C@@H](O)[C@](OC)(C1O)[C@H](c1ccc3c(c1)OCO3)[C@H]2C (stereo not given in full)
inactive: dose: 16.25 mg/kg/injection, schedule: Q01DX005 (ip), vehicle: Klucel (hydroxypropylcellulose) (HPC) 108 % of control | dose: 32.5 mg/kg/injection, schedule: Q01DX005 (ip), vehicle: Klucel (hydroxypropylcellulose) (HPC) 98 % of control | dose: 65.0 mg/kg/injection, schedule: Q01DX005 (ip), vehicle: Klucel (hydroxypropylcellulose) (HPC) 99 % of control | dose: 130.0 mg/kg/injection, schedule: Q01DX005 (ip), vehicle: Klucel (hydroxypropylcellulose) (HPC) 89 % of control

O=C1N=c2ccccc2=C1c1sc(=O)n(Cc2nc3ccccc3[nH]2)c1O
inactive: [4] 102 % of control | [5] 97 % of control | [6] 93 % of control

C[CH2][Ge]([Cl])([CH2]C)[c]1cc[c]([Ge]([Cl])([CH2]C)[CH2]C)cc1
inactive: [4] 98 % of control | [5] 96 % of control | [6] 99 % of control

CC(/C=C/c1ccccc1)=N\NC(=O)C(N)=O
inactive: [7] 97 % of control | [8] 97 % of control | [9] 96 % of control | [10] 100 % of control | [11] 91 % of control | [12] 98 % of control

COc1cccc(/C(C#N)=N/NC(=O)c2nc[nH]c2C)c1
inactive: dose: 1.56 mg/kg/injection, schedule: Q01DX005 (ip), vehicle: saline with Tween-80 93 % of control | dose: 3.12 mg/kg/injection, schedule: Q01DX005 (ip), vehicle: saline with Tween-80 94 % of control | dose: 6.25 mg/kg/injection, schedule: Q01DX005 (ip), vehicle: saline with Tween-80 95 % of control | dose: 12.5 mg/kg/injection, schedule: Q01DX005 (ip), vehicle: saline with Tween-80 93 % of control | [13] 86 % of control | [14] 87 % of control | [15] 100 % of control

COc1ccccc1N=Nc1cc(S(=O)(=O)O)c2ccccc2c1O
inactive: dose: 25.0 mg/kg/injection, schedule: Q01DX009 (ip), vehicle: saline 89 % of control | [10] 97 % of control | [11] 100 % of control and 117 % of control | [12] 91 % of control

COC(=O)C(=O)C(C(=O)c1ccc(F)cc1)c1nc2n(c1O)C(=N)N=N2 (stereo not given)
inactive: [16] 102 % of control | [17] 86 % of control

CCOC(=O)C(CNC(=O)c1ccccc1)(NC(C)=O)C(=O)OCC
inactive: dose: 12.5 mg/kg/injection, schedule: Q01DX009 (ip), vehicle: other 121 % of control | dose: 25.0 mg/kg/injection, schedule: Q01DX009 (ip), vehicle: other 121 % of control | dose: 50.0 mg/kg/injection, schedule: Q01DX009 (ip), vehicle: other 112 % of control | dose: 100.0 mg/kg/injection, schedule: Q01DX009 (ip), vehicle: other 97 % of control | dose: 200.0 mg/kg/injection, schedule: Q01DX009 (ip), vehicle: other 103 % of control

Cc1ccc2nc3[nH]c(=O)[nH]c(=O)c3c(C(N)=O)c2c1
inactive: [4] 100 % of control | [5] 94 % of control | [6] 94 % of control

CCC(=O)NC1=C(Cl)C(=O)C(Cl)=C(Cl)C1=O
inactive: [18] 111 % of control | [19] 103 % of control

Cc1nn(-c2ccccc2)nc1C(=O)Nc1ccccc1C(=O)NCC1CC1
inactive: [16] 91 % of control | [17] 90 % of control and 94 % of control and 96 % of control | [20] 103 % of control and 95 % of control and 96 % of control

O=C(CC(=O)N1CCN=C1Nc1c(Cl)cccc1Cl)c1ccc(Cl)cc1
inactive: dose: 6.25 mg/kg/injection, schedule: Q01DX009 (ip), vehicle: Klucel (hydroxypropylcellulose) (HPC) 109 % of control | dose: 12.5 mg/kg/injection, schedule: Q01DX009 (ip), vehicle: Klucel (hydroxypropylcellulose) (HPC) 105 % of control | [21] 96 % of control

CSC1=NC(=S)C(C)(C)NN1
inactive: dose: 100.0 mg/kg/injection, schedule: Q04DX002 (ip), vehicle: Klucel (hydroxypropylcellulose) (HPC) 104 % of control

COc1cc(OC)c(Cc2cc3c(cc2OC)OCO3)c(OC)c1
inactive: [16] 91 % of control | [17] 87 % of control | [20] 87 % of control

O=C1C(N2CC2)=C(N2CC2)C(=O)C(N2CC2)=C1N1CC1
inactive: dose: 1.8 micrograms/kg/injection, schedule: Q01DX009 (ip), vehicle: saline 110 % of control | dose: 2.7 micrograms/kg/injection, schedule: Q01DX009 (ip), vehicle: saline 115 % of control | dose: 4.0 micrograms/kg/injection, schedule: Q01DX009 (ip), vehicle: saline 112 % of control

COc1cc(OC)c(OC)cc1/C=C\c1ccc2ccccc2[n+]1C
inactive: dose: 3.12 mg/kg/injection, schedule: Q01DX009 (ip), vehicle: saline with Tween-80 105 % of control | [19] 110 % of control | [7] 111 % of control and 122 % of control | [8] 123 % of control

COC(=O)C1(CC(=O)c2ccncc2)NC(=S)NC(=O)C1C#N (stereo not given)
inactive: [1] 99 % of control | [2] 101 % of control | [3] 94 % of control

CSC(=S)NN=C1CCCCC1
inactive: dose: 0.78 mg/kg/injection, schedule: Q01DX009 (ip), vehicle: saline with Tween-80 97 % of control | dose: 1.56 mg/kg/injection, schedule: Q01DX009 (ip), vehicle: saline with Tween-80 108 % of control | [18] 105 % of control | [19] 98 % of control | [7] 113 % of control

CCCCCCCCCCCCCC1=C(O)C(=O)C=C(O)C1=O
inactive: dose: 1.0 mg/kg/injection, schedule: Q01DX005 (ip), vehicle: Klucel (hydroxypropylcellulose) (HPC) 100 % of control | dose: 2.0 mg/kg/injection, schedule: Q01DX005 (ip), vehicle: Klucel (hydroxypropylcellulose) (HPC) 105 % of control | dose: 4.0 mg/kg/injection, schedule: Q01DX005 (ip), vehicle: Klucel (hydroxypropylcellulose) (HPC) 95 % of control | dose: 8.0 mg/kg/injection, schedule: Q01DX005 (ip), vehicle: Klucel (hydroxypropylcellulose) (HPC) 102 % of control | dose: 16.0 mg/kg/injection, schedule: Q01DX005 (ip), vehicle: Klucel (hydroxypropylcellulose) (HPC) 98 % of control

COc1cc(C(O)C2C(=O)OCC2C2(c3ccc4c(c3)OCO4)SCCCS2)cc(OC)c1OC (stereo not given)
inactive: [9] 107 % of control | dose: 100.0 mg/kg/injection, schedule: Q01DX001 (ip), vehicle: saline with Tween-80 109 % of control | dose: 100.0 mg/kg/injection, schedule: Q01DX009 (ip), vehicle: saline with Tween-80 115 % of control | dose: 200.0 mg/kg/injection, schedule: Q01DX001 (ip), vehicle: saline with Tween-80 104 % of control | dose: 200.0 mg/kg/injection, schedule: Q01DX009 (ip), vehicle: saline with Tween-80 108 % of control

Cc1cc(N2C(=O)CCSC2=S)c([N+](=O)[O-])cc1C
inactive: dose: 50.0 mg/kg/injection, schedule: Q01DX009 (ip), vehicle: suspension in saline 98 % of control | dose: 100.0 mg/kg/injection, schedule: Q01DX009 (ip), vehicle: suspension in saline 91 % of control | dose: 200.0 mg/kg/injection, schedule: Q01DX009 (ip), vehicle: suspension in saline 94 % of control

CSC1=Nc2ccccc2N=C(N2CCCC2)C1
inactive: [4] 103 % of control | [5] 97 % of control | [6] 97 % of control

COC1/C=C/OC2(C)Oc3c(C)c(O)c4c(c3C2=O)C(N)=C(Nc2ccccc2)C(=NC(=O)C(C)=CC=CC(C)C(O)C(C)C(O)C(C)C(OC(C)=O)C1C)C4=O (stereo not given)
inactive: [21] 97 % of control | dose: 50.0 mg/kg/injection, schedule: Q01DX009 (ip), vehicle: Klucel (hydroxypropylcellulose) (HPC) 94 % of control | dose: 100.0 mg/kg/injection, schedule: Q01DX009 (ip), vehicle: Klucel (hydroxypropylcellulose) (HPC) 98 % of control | dose: 200.0 mg/kg/injection, schedule: Q01DX009 (ip), vehicle: Klucel (hydroxypropylcellulose) (HPC) 86 % of control

O=C1CN(c2cccc(Cl)c2)C(=O)CN1/N=C/c1ccccn1
inactive: [13] 100 % of control | [14] 106 % of control | [15] 100 % of control
